17 molecules from US6333337A, “Potassium channel inhibitors” (ICAgen, Inc., priority 1999, dated 2001) can be followed below.

Assay [1] deals with T1, human Kv1.5 (Homo sapiens, UniProt P22460).
T1 construct: expressed in transfected cells
Kind of assay: 86Rb efflux assay, inhibition of 86Rb efflux through Kv1.5 potassium channels expressed in CHO cells. Format: cell-based. As to conditions: Kv1.5 in CHO cells, 70 mM KCl, 1 minute. The procedure:
Cells stably transfected with cDNA for human Kv1.5 (in pcDNA3 vector) were grown as confluent monolayers in 96 well tissue culture plates in MEM alpha with 10% heat inactivated fetal bovine serum and 400 μg/ml G418. Cells were incubated overnight in growth media containing 1 μCi/ml ^86 Rb to permit intracellular uptake of the isotope. At the end of the incubation period, the ^86 Rb solution was aspirated and the cells washed three times with Earls Balanced Salt Solution (EBSS) which contained (in mM) 132 NaCl 5.4 KCl, 1.8 CaCl2, 0.8 mM MgCl2 10 mM HEPES and 5 mM glucose. The cells were then preincubated for 10 minutes at room temperature in 100 μl/well of EBSS or EBSS containing test compounds. At the end of this period the wells were aspirated and to each well was then added 100 μl of a modified EBSS solution containing 70 mM KCl (NaCl replaced by KCl) and the compound to be tested. The high KCl concentration was utilized to depolarize the cells to membrane potentials that would activate Kv1.5 channels. After a 1 minute incubation in 70 mM KCl EBSS plus test compound, the solution was removed and placed into the appropriate well of a 96 well counting plate for analysis. Finally 100 μl of 0.1% sodium docecyl sulfate in EBSS was added to each well to lyse the cells. The lysate was taken for analysis to determine final cell content of ^86 Rb. Samples were counted in a Wallac Microbeta liquid scintillation counter by Cerenkov emission. Efflux was expressed as a percentage of the initial cell content of ^86 Rb.
The testing results of selective compounds from Tables 1A-C using this assay are reported in Table 2 (flux) as the potency for inhibition of ^86 Rb efflux through Kv1.5 potassium channels expressed in CHO cells by compounds of the invention.

The target in assay [2] is T2, Kv1.5 potassium channel (Homo sapiens, UniProt P22460).
T2 construct: expressed in transfected cells
The assay is described as follows: Electrophysiological studies, whole cell patch clamp, inhibition of Kv1.5 potassium currents in Chinese hamster ovary cells. The format is cell-based. As to conditions: CHO cells. On the procedure: Electrophysiological recordings of potassium currents in Chinese hamster ovary cells stably expressing the gene construct for the Kv1.5 potassium channel subunit were performed using the whole cell configuration of the patch clamp technique (Hamill et al., Pflugers Archiv 391:85, 1981). Cell lines expressing Kv1.5 were prepared using standard techniques known to those skilled in the art. Cells were plated on glass coverslips at a density of 2×10^4 cells/coverslip and used within 24-48 hours. Solutions used for electrophysiological recordings were as follows. Extracellular bathing solutions contained (in mM) 132 NaCl, 5.4 KCl, 1.8 CaCl2, 0.8 MgCl2, 10 HEPES, 5 glucose at pH 7.3. Electrode pipette solutions for measuring Kv1.5 contain (in mM) 100 KCl 5 NaCl, 2 MgCl2, 5 mM EGTA, 10 mM HEPES and 5 glucose at pH 7.4, 295 mOsm. The coverslips were placed in a small chamber (volume ~200 μl) on the mechanical stage of an inverted microscope and perfused (2 ml/min) with extracellular recording solution. Drug was applied using a series of narrow-bore glass capillary tubes (inner diameter ~100 μm) positioned approximately 200 μm from the cell.
A general note: Patch clamp records ionic current or voltage across a cell membrane.

T2 sequence (P22460 whole entry): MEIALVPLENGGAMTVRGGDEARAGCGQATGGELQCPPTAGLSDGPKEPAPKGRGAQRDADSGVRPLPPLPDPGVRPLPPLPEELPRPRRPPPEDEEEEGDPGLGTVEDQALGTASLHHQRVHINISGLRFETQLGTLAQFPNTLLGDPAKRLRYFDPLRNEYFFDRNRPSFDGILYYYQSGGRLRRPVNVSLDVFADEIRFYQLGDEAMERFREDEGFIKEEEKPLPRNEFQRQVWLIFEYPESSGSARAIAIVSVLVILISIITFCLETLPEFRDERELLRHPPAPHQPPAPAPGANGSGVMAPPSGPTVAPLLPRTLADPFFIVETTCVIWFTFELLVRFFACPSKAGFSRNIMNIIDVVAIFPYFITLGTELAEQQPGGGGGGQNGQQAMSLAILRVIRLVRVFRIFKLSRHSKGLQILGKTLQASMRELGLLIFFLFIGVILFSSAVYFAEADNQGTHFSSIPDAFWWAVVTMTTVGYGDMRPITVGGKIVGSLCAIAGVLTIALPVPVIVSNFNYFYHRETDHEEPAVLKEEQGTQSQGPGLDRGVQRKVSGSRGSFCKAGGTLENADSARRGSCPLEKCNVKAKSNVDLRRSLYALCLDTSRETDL
T1 sequence (P22460 whole entry): as above

Consider `CCc1ccc(S(=O)(=O)N[C@H]2c3cc(NCc4ccc(OC(F)(F)F)cc4)ccc3CC[C@@H]2O)cc1` (relative stereo) [Entry 60, trans-N1-(4-ethylphenylsulfonyl)-N7-(4-trifluoromethoxybenzyl)-1,7-diamino-1,2,3,4-tetrahydro-2-naphthalenol], for which the IC50 – broadly, the concentration that gives 50% inhibition – in assay [1] was > 50000 nM; in assay [2] it was 500 nM. For `CCc1ccc(S(=O)(=O)NC2c3cc(NC(=O)c4cccc(OC)c4)ccc3CCC2O)cc1` (stereo not drawn) [Entry 1] the same measures were 6800 nM and 250 nM. For `CCc1ccc(S(=O)(=O)NC2c3cc(NC(=O)c4ccccc4OC)ccc3CCC2O)cc1` (stereo not drawn) [Entry 13], in that order: > 50000 nM and 400 nM.

As to `CCCCc1ccc(S(=O)(=O)NC2c3cc(NC(=O)c4cccc(OC)c4)ccc3CCC2O)cc1` (stereo not drawn) [Entry 19], the IC50 is 2900 nM in assay [1] and 50 nM in assay [2].

On to `CCc1ccc(S(=O)(=O)NC2c3cc(NC(=O)C4Cc5ccccc5CN4CC)ccc3CCC2O)cc1` (stereo not drawn) [Entry 24], for which the IC50 in assay [1] came to 5900 nM; in assay [2], 600 nM. For `CCc1ccc(S(=O)(=O)NC2c3cc(NC(=O)C#Cc4ccccc4)ccc3CCC2O)cc1` (stereo not drawn) [Entry 28] the same measures were 5900 nM and 90 nM. In the case of `CCc1ccc(C(=O)Nc2ccc3c(c2)C(NS(=O)(=O)c2ccc(C(C)C)cc2)C(O)CC3)cc1` (stereo not drawn) [Entry 40], inhibition in assay [1] was half-maximal at 9000 nM (IC50). `COc1cccc(C(=O)Nc2ccc3c(c2)C(NS(=O)(=O)Cc2ccccc2)C(O)CC3)c1` (stereo not drawn) [Entry 70]: the IC50 in assay [1] worked out at 29000 nM; in assay [2] it was 2100 nM. Molecule `CCCc1ccc(S(=O)(=O)NC2c3cc(NC(=O)c4ccc([N+](=O)[O-])cc4)ccc3CCC2O)cc1` (stereo not drawn) [Entry 85] gave an IC50 in assay [1] of 46000 nM.

With `Cc1cccc(C(=O)Nc2ccc3c(c2)C(NS(=O)(=O)c2cccc(C)c2)C(O)CC3)c1` (stereo not drawn) [Entry 97], the IC50 in assay [1] worked out at 39000 nM. Same read-out and setting: to `CCc1ccc(S(=O)(=O)NC2c3cc(NC(=O)c4cccs4)ccc3CCC2O)cc1` (stereo not drawn) [Entry 103] belongs 20000 nM; to `COc1cc(C)c(S(=O)(=O)NC2c3cc(NC(=O)c4ccccc4)ccc3CCC2O)c(C)c1C` (stereo not drawn) [Entry 110], 12000 nM. For `CCc1ccc(S(=O)(=O)NC2c3cc(N(Cc4cccnc4)C(=O)C4CC4)ccc3CCC2O)cc1` (stereo not drawn) [Entry 123], the IC50 in assay [2] amounted to 100 nM. Still for that read-out and setting: the same measure for `CCc1ccc(S(=O)(=O)N(Cc2cccnc2)C2c3cc(NC(=O)c4cccc(OC)c4)ccc3CCC2O)cc1` (stereo not drawn) [Entry 132]: 500 nM; for `CCc1ccc(S(=O)(=O)NC2c3cc(NC(=O)C4CCCN4Cc4cccc(Cl)c4)ccc3CCC2O)cc1` (stereo not drawn) [Entry 135]: 100 nM; for `CCc1ccc(S(=O)(=O)NC2c3cc(NC(=O)c4cccc(OC)c4)ccc3CCC2O)cc1` (stereo not drawn) [Entry 158]: 600 nM. On the same count and under the same terms, the same measure for `CCc1ccc(S(=O)(=O)NC2c3cc(N(Cc4cccnc4)C(=O)C4CC4)ccc3CCC2O)cc1` (stereo not drawn) [Entry 162]: 200 nM.
